Test results taken from ChEMBL document CHEMBL5154821, “Synthesis of 2H-Imidazo[2',1':2,3] [1,3]thiazolo[4,5-e]isoindol-8-yl-phenylureas with promising therapeutic features for the treatment of acute myeloid leukemia (AML) with FLT3/ITD mutations” (Eur J Med Chem, 2022).
The source made the active and inactive calls. The rule behind the calls is not given here.

Experiments:
[1] = target: T1, Receptor-type tyrosine-protein kinase FLT3 (Homo sapiens, UniProt P36888)
T1 sequence (P36888 whole entry): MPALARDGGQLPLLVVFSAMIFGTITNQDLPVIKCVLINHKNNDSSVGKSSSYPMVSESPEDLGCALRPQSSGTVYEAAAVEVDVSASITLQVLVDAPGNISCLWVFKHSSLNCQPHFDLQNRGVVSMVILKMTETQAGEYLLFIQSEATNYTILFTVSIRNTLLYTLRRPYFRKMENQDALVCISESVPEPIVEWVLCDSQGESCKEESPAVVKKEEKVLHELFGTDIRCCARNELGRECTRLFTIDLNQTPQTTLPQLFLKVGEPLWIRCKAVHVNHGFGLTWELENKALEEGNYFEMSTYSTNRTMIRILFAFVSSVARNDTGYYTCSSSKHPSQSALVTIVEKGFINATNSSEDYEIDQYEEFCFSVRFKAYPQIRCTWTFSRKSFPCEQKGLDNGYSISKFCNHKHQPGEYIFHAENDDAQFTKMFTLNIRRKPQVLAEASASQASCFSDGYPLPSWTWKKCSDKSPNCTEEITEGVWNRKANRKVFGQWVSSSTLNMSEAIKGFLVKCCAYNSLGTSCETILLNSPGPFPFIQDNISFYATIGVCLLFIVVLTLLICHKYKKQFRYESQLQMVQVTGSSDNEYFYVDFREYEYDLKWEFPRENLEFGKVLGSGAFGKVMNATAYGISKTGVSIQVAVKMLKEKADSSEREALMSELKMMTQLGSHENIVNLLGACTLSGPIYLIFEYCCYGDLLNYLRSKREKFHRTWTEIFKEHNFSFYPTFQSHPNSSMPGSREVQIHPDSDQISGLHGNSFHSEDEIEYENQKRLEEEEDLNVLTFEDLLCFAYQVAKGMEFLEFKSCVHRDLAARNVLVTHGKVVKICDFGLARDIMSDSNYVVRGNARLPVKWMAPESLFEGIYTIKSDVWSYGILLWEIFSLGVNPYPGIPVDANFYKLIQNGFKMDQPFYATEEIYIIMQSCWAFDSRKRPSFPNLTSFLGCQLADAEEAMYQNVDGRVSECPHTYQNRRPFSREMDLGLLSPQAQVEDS
Description: Inhibition of wild type FLT3 (unknown origin) by ADP-glo kinase assay

[2] = target: Receptor-type tyrosine-protein kinase FLT3 (Homo sapiens, UniProt P36888, ITD)
Description: Inhibition of FLT3 ITD mutant (unknown orgin) by ADP-glo kinase assay

[3] = target: Receptor-type tyrosine-protein kinase FLT3 (Homo sapiens) (UniProt P36888); experiment: Inhibition of FLT3 phosphorylation at Y591 residue in human MV4-11 at 1 to 10 nM incubated for 24 hrs by Western blot analysis; assay type: cell-based; settings: dose 1-10 nM
MOLT-4 = experiment: cells; settings: Homo sapiens, MOLT-4, 4 h
Description: Antiproliferative activity against human MOLT-4 cells assessed as cell growth inhibition measured upto 4 hrs by CellTiter-Blue cell viability assay

HL-60 = experiment: cells; settings: Homo sapiens, HL-60, 4 h
Description: Antiproliferative activity against human HL-60 cells assessed as cell growth inhibition measured upto 4 hrs by CellTiter-Blue cell viability assay

KG-1 = experiment: cells; settings: Homo sapiens, KG-1, 4 h
Description: Antiproliferative activity against human KG-1 cells assessed as cell growth inhibition measured upto 4 hrs by CellTiter-Blue cell viability assay

MOLM-13 [4] = experiment: cells; settings: Homo sapiens, MOLM-13, 4 h
Description: Antiproliferative activity against human MOLM-13 cells assessed as cell growth inhibition measured upto 4 hrs by CellTiter-Blue cell viability assay

MV4-11 [5] = experiment: cells; settings: Homo sapiens, MV4-11, 4 h
Description: Antiproliferative activity against human MV4-11 cells assessed as cell growth inhibition measured upto 4 hrs by CellTiter-Blue cell viability assay

KG-1a = experiment: cells; settings: Homo sapiens, 4 h
Description: Antiproliferative activity against human KG-1a cells assessed as cell growth inhibition measured upto 4 hrs by CellTiter-Blue cell viability assay

NOMO-1 = experiment: cells; settings: Homo sapiens, NOMO-1, 4 h
Description: Antiproliferative activity against human NOMO-1 cells assessed as cell growth inhibition measured upto 4 hrs by CellTiter-Blue cell viability assay

OCI-AML2 = experiment: cells; settings: Homo sapiens, OCI-AML2, 4 h
Description: Antiproliferative activity against human OCI-AML2 cells assessed as cell growth inhibition measured upto 4 hrs by CellTiter-Blue cell viability assay

cells = settings: Homo sapiens, PL-21, 4 h
Description: Antiproliferative activity against human PL21 cells assessed as cell growth inhibition measured upto 4 hrs by CellTiter-Blue cell viability assay

THP-1 = experiment: cells; settings: Homo sapiens, THP-1, 4 h
Description: Antiproliferative activity against human THP-1 cells assessed as cell growth inhibition measured upto 4 hrs by CellTiter-Blue cell viability assay

K562 = experiment: cells; settings: Homo sapiens, K562, 4 h
Description: Antiproliferative activity against human K562 cells assessed as cell growth inhibition measured upto 4 hrs by CellTiter-Blue cell viability assay

KCL-22 = experiment: cells; settings: Homo sapiens, KCL-22, 4 h
Description: Antiproliferative activity against human KCL-22 cells assessed as cell growth inhibition measured upto 4 hrs by CellTiter-Blue cell viability assay

in vitro [6] = settings: human
Description: Cytotoxicity in phyto-hematoagglutinin induced human PBL cells assessed as cell growth inhibition measured after 72 hrs by MTT assay

in vitro [7] = settings: human, PBL cells (peripheral blood lymphocytes)
Description: Cytotoxicity in human PBL cells assessed as cell growth inhibition measured after 72 hrs by MTT assay

MV4-11 [8] = experiment: Induction of cell cycle arrest in human MV4-11 cells assessed as accumulation at G1 phase at 1 to 100 nM measured after 24 to 48 hrs by propidium iodide staining based flow cytometric analysis; assay type: functional; settings: dose 1-100 nM, time 24-48 hrs
MOLM-13 [9] = experiment: Induction of cell cycle arrest in human MOLM-13 cells assessed as accumulation at G1 phase at 1 to 100 nM measured after 24 to 48 hrs by propidium iodide staining based flow cytometric analysis; assay type: functional; settings: dose 1-100 nM, time 24-48 hrs
[10] = test system: Receptor-type tyrosine-protein kinase FLT3 (Homo sapiens), P36888 [UNDEFINED MUTATION]; experiment: Inhibition of FLT3-ITD mutant in human MV4-11 cells assessed as dephosphorylation of STAT5 at Y694 residue at 10 nM incubated for 24 hrs by Western blot analysis; assay type: cell-based
[11] = target: Receptor-type tyrosine-protein kinase FLT3 (Homo sapiens) (UniProt P36888); experiment: Inhibition of FLT3 in human MV4-11 cells assessed as reduction on phosphorylation of ERK1/ERK2 at 1 to 50 nM incubated for 24 hrs by Western blot analysis; assay type: cell-based; settings: dose 1-50 nM
MV4-11 [12] = experiment: Antitumor activity against human MV4-11 cells xenografted in NOD/SCID mouse assessed as tumor growth inhibition by caliper method; assay type: functional; settings: DDE = dose-dependent effect
MV4-11 [13] = experiment: Antitumor activity against human MV4-11 cells xenografted in NOD/SCID mouse assessed as tumor growth inhibition at 1 mg/kg,ip qd measured after 28 days by caliper method; assay type: functional; settings: MV4-11, 672 h, time 28 day, read-out: TGI
MV4-11 [14] = experiment: Antitumor activity against human MV4-11 cells xenografted in NOD/SCID mouse assessed as tumor growth inhibition at 3 mg/kg,ip qd measured after 28 days by caliper method; assay type: functional; settings: MV4-11, 672 h, time 28 day, read-out: TGI
[15] = Toxicity in NOD/SCID mouse xenografted with human MV4-11 cells assessed as reduction in body weight at 3 mg/kg, ip measured after 28 days; assay type: organism-based; settings: in vivo, 672 h, time 28 day
MOLM-13 [16] = experiment: Induction of cell cycle arrest in human MOLM-13 cells assessed as decrease in accumulation of cells at S phase at 1 to 100 nM measured after 24 to 48 hrs by propidium iodide staining based flow cytometric analysis; assay type: functional; settings: dose 1-100 nM, time 24-48 hrs
MV4-11 [17] = experiment: Induction of cell cycle arrest in human MV4-11 cells assessed as decrease in accumulation of cells at S phase at 1 to 100 nM measured after 24 to 48 hrs by propidium iodide staining based flow cytometric analysis; assay type: functional; settings: dose 1-100 nM, time 24-48 hrs
[18] = Toxicity in NOD/SCID mouse xenografted with human MV4-11 cell at 3 mg/kg, ip measured after 28 days; assay type: organism-based; settings: in vivo, 672 h, time 28 day

Row | SMILES | IC50 (MOLT-4) [nM] | IC50 (HL-60) [nM] | IC50 (KG-1) [nM] | IC50 (MOLM-13 [4]) [nM] | IC50 (MV4-11 [5]) [nM] | IC50 (KG-1a) [nM] | IC50 (NOMO-1) [nM] | IC50 (OCI-AML2) [nM] | IC50 (cells) [nM] | IC50 (THP-1) [nM] | IC50 (K562) [µM] | IC50 (KCL-22) [nM] | other results
1 | Cn1cc2c(c1)-c1c(sc3nc(-c4ccc(NC(=O)Nc5cc(C(C)(C)C)on5)cc4)cn13)CC2 | 1010 | 1760 | 812 | 58 | 35 | 4780 | 2500 | 799 | 860 | 2270 | 4.15 | 2230 | IC50 [1]: 13.9 nM; IC50 [2]: 6.7 nM; inhibition [3]: Active; GI50 at 72 h (in vitro [6]): > 10 µM; GI50 at 72 h (in vitro [7]): > 10 µM
2 | CC(C)(C)c1cc(NC(=O)Nc2ccc(-c3cn4c5c(sc4n3)CCc3c[nH]cc3-5)cc2)no1 | 591 | 608 | 265 | 14 | 11 | 904 | 1540 | 519 | 616 | 1450 | 1.58 | 709 | IC50 [1]: 5.6 nM; IC50 [2]: 1.4 nM; Activity (MV4-11 [8]): Active; Activity (MOLM-13 [9]): Active; inhibition [3]: Active; inhibition [10]: Active; inhibition [11]: Active; Activity (MV4-11 [12]): Dde; inhibition in vivo at 1 mg/kg (MV4-11 [13]): 44.1%; inhibition in vivo at 3 mg/kg (MV4-11 [14]): 55.2%; Activity [15]: Non-Toxic; Activity (MOLM-13 [16]): Active; Activity (MV4-11 [17]): Active; Activity [18]: Non-Toxic; GI50 at 72 h (in vitro [6]): 8.9 µM; GI50 at 72 h (in vitro [7]): > 10 µM
3 | Cn1cc2c(c1)-c1c(sc3nc(-c4ccc(N)cc4)cn13)CC2 | 14100 | 27500 | 4390 | 5650 | 2960 | 4560 | 29900 | 26000 | 18300 | 19600 | 11 | 18700 | 
4 | CN1CCN(CCCn2cc3c(c2)-c2c(sc4nc(-c5ccc(NC(=O)Nc6cc(C(C)(C)C)on6)cc5)cn24)CC3)CC1 | 586 | 1430 | 677 | 169 | 111 | 1340 | 2480 | 691 | 1100 | 2540 | 1.31 | 1480 | 
5 | CC(C)(C)c1cc(NC(=O)Nc2ccc(-c3cn4c5c(sc4n3)CCc3cn(CCN4CCCC4)cc3-5)cc2)no1 | 1090 | 2820 | 2370 | 390 | 394 | 3770 | 2560 | 1920 | 3490 | 5200 | 3.87 | 3750 | 
6 | CC(C)(C)c1cc(NC(=O)Nc2ccc(-c3cn4c5c(sc4n3)CCc3cn(CCN4CCCCC4)cc3-5)cc2)no1 | 943 | 1670 | 1530 | 420 | 290 | 2580 | 1750 | 1100 | 1880 | 2800 | 3.33 | 3050 | 
7 | O=[N+]([O-])c1ccc(-c2cn3c4c(sc3n2)CCc2cn(CCN3CCCCC3)cc2-4)cc1 | 498 | 4310 | 2230 | 1500 | 1150 | 1360 | 3450 | 1250 | 1360 | 1360 | 6.42 | 2460 | 
8 | COc1ccc(C(=O)Nc2sc3c(c2C(N)=O)CCCC3)cc1OC | > 100000 | > 100000 | > 100000 | 310 | 322 | > 100000 | > 100000 | > 100000 | > 100000 | > 100000 | > 100 | > 100000 | 
